Experimental data taken from publication PMC9029599, “Cytotoxicity and Antiviral Properties of Alkaloids Isolated from Pancratium maritimum” (Toxins, 2022).
Read-outs that look alike come from different tables or passages of the source.

How the values were obtained:
DENVGFP = assay: microbe, parasite or virus in culture; type: cell-based, dengue virus
Huh7 cells = assay: Cytotoxicity in Huh7 cells (ATP levels, Cell-Titer GLO)
Procedure: (§1) To account for non-specific antiviral activity caused by enhanced cell death, the cytotoxicity of P. maritimum isolated AAs was first determined in THP-1 and Huh7 virus-targeted cell lines exposed to concentrations ranging from 0.05 to 200 µM for 72 h. Cell viability was measured using ATP levels as a marker.
(§2) The monocytic cell line THP-1 derived from an acute monocytic leukemia patient was used in HIV-1GFP infection assays, while the hepatocyte-derived carcinoma cell line Huh7 was used with DENVGFP. Cell viability was evaluated using the Cell-Titer GLO assay kit (Promega, Madison, WI, USA) as previously described. Briefly, 7.5 × 10^3 Huh7 cells/well or 4 × 10^4 THP-1 cells/well were seeded in 96-well dark plates and treated with isolated AAs dissolved in methanol at concentrations ranging from 0.05 to 200 µM for 72 h. Afterwards, Cell-Titer GLO reagent was added in each well of room temperature-equilibrated plates. Luminescence was measured 10 min after shaking the plates for 2 min using a microplate spectrophotometer (Synergy H1, Biotek, Québec, QC, Canada). The percentage of viable cells was calculated at each concentration relatively to cells treated with matched concentrations of MetOH.

in vitro = settings: human
Procedure: as §1, §2

[1] = test system: VSV-G-pseudotyped HIV-1GFP; assay: cells; type: cell-based, human immunodeficiency virus-1; settings: for EC50: read-out: EC50 HIVGFP
[2] = Cytotoxicity in THP-1 cells (ATP levels, Cell-Titer GLO); settings: human
Procedure: as §1, §2

Hacat cells [3] = settings: for reduction of Hacat cell viability: 10 µM, 24 h of treatment, MTT; for cytotoxic activity on Hacat cells: in words
Procedure: (§3) The potential cytotoxic activity of P. maritimum alkaloids was evaluated on Hacat, A431 and AGS cells treated with concentrations ranging from 0.5 to 10 µM for 24 and 48 h by measuring the reduction of 3-(4,5-dimethylthiazol-2) 2,5- diphenyltetrazolium bromide (MTT) to formazan by the mitochondrial enzyme succinate dehydrogenase.
(§4) HaCaT, spontaneously immortalized keratinocytes from adult skin, and AGS gastric adenocarcinoma cells were purchased from Service Cell Line (GmBH, Eppelheim, CLS, Germany). A431 (ATCC-CRL1555) human epidermoid carcinoma cells were from American Type Culture Collection (ATCC, Manassas, VA, USA). All mentioned cell lines were cultured in Dulbecco’s Modified Eagle’s Medium (DMEM, Sigma Chemical Co., St. Louis, MO, USA) supplemented with 10% fetal bovine serum (FBS, Hyclone Laboratories, Inc. Logan, UT, USA) at 37 °C in a humidified atmosphere of 5% CO2. Absence of mycoplasma contamination was verified for all cell lines. The purified alkaloids were resuspended in DMSO and added to the cell medium at concentrations varying from 0.5 to 50 µM as indicated.
(§5) Cell viability was evaluated by measuring the reduction of 3-(4,5-dimethylthiazol-2) 2,5-diphenyltetrazolium bromide (MTT) to formazan by the mitochondrial enzyme succinate dehydrogenase. Briefly, 10 × 10^3 cells were seeded on 96-well plates and exposed to different concentrations of total extract or metabolites for 48 h. and 72 h. MTT/PBS solution (0.5 mg/mL) was then added to the wells and incubated for 3 h at 37 °C in a humidified atmosphere. The reaction was stopped by removal of the supernatant followed by dissolving the formazan product in acidic isopropanol and the optical density was measured with Synergy H4 microplate reader Gen5 2.07 (Thermofisher, Waltham, MA, USA) using a 570 nm filter. Under these experimental conditions, no undissolved formazan crystals were observed. Cell viability was assessed by comparing the optical density of the treated samples compared to the controls. Statistical analyses were carried out using the GraphPad Prism version 8.1.2 (https://www.graphpad.com/scientific-software/prism/ (accessed on 18 December 2021)). Data were represented as the mean standard deviation and analyzed for statistical significance using ordinary one-way analysis of variance (ANOVA) and multiple comparisons. For all tests, p < 0.05 was considered to indicate a statistically significant difference.

A431 cells [4] = settings: for reduction of A431 cell viability: 10 µM, 24 h of treatment, MTT; for cytotoxic activity on A431 cells: in words
Procedure: as §3, §4, §5

AGS cells = assay: MTT viability test, AGS cells; type: cell-based; settings: for IC50: Homo sapiens, AGS; for cytotoxic activity on AGS cells: in words; for effect on AGS cell viability: 0.5 to 50 µM, 24 and 48 h
Procedure: as §3, §4
Cell viability was evaluated by measuring the reduction of 3-(4,5-dimethylthiazol-2) 2,5-diphenyltetrazolium bromide (MTT) to formazan by the mitochondrial enzyme succinate dehydrogenase. Briefly, 10 × 10^3 cells were seeded on 96-well plates and exposed to different concentrations of total extract or metabolites for 48 h. and 72 h. MTT/PBS solution (0.5 mg/mL) was then added to the wells and incubated for 3 h at 37 °C in a humidified atmosphere. The reaction was stopped by removal of the supernatant followed by dissolving the formazan product in acidic isopropanol and the optical density was measured with Synergy H4 microplate reader Gen5 2.07 (Thermofisher, Waltham, MA, USA) using a 570 nm filter. Under these experimental conditions, no undissolved formazan crystals were observed. Cell viability was assessed by comparing the optical density of the treated samples compared to the controls. […] Data were represented as the mean standard deviation and analyzed for statistical significance using ordinary one-way analysis of variance (ANOVA) and multiple comparisons. For all tests, p < 0.05 was considered to indicate a statistically significant difference.

THP-1 cells = assay: Cytotoxicity in THP-1 cells (ATP levels, Cell-Titer GLO); settings: 72 h; for live THP-1 cells: 6.25 µM
Procedure: as §1, §2

Hacat cells [5] = assay: cells; settings: Homo sapiens, read-out: IC50 Hacat
Procedure: as §3, §4, §5

A431 cells [6] = assay: cells; settings: Homo sapiens, A-431, read-out: IC50 A431
Procedure: as §3, §4, §5

[7] = Dengue virus, Huh-7, 72 h, read-out: EC50 DENVGFP, Huh7 cells, MOI = 0.02, 72 h
[8] = Dengue virus, Huh-7, read-out: EC50 DENV, Huh7 cells
[9] = MTT, time not stated, read-out: IC50 AGS
[10] = read-out: EC50 DENVGFP, Huh7 cells, MOI = 0.02, 72 h

With OC1C=CC23c4cc5c(cc4CN(CC2O)C3C1)OCO5 (centres unmarked) [11-Hydroxyvittatine] the EC50 (DENVGFP; [7]) was 3.92 µM, the “concentration at which Huh7 cell viability is reduced” value (Huh7 cells; 72 h) was “higher than 50 µM” and the viability at 72 h, 50 µM (in vitro) was 73.8%. The “inhibition of HIV-1GFP, dose dependence” value [1] was “dose-dependent inhibition of HIV-1”, the EC50 ([1]; Homo sapiens, THP-1, 72 h) was 65.1 µM and the viability at 72 h, 100 µM [2] was 52.3%. It also gave a CC50 at 72 h ([2]; CC50 THP-1, 72 h, ATP levels) of 113 µM.
In the case of COC1C=CC23c4cc5c(cc4CN(CC2O)C3C1)OCO5 (centres unmarked) [Haemanthamine], the “DENVGFP inhibition at 1.56 µM” value (DENVGFP; Huh7 cells) is reported as “Complete inhibition”, the EC50 (DENVGFP; [7]) is reported as 0.34 µM and the EC50 (DENVGFP; [8]) is reported as 0.337 µM. The “reduction of Hacat cell viability” value (Hacat cells [3]) was 15–30%, the “live Huh7 cells” value (Huh7 cells; 3.125 µM, 72 h) was 82.2% and the “concentration at which Huh7 cell viability is reduced” value (Huh7 cells; 72 h) was “above 3.125 µM”. The “reduction of A431 cell viability” value (A431 cells [4]) was 15–30%, the “HIV-1GFP inhibition at 100 µM” value [1] was “Complete viral inhibition” and the “inhibition of HIV-1GFP, dose dependence” value [1] was “dose-dependent inhibition of HIV-1”. For the same compound, the EC50 ([1]; Homo sapiens, THP-1, 72 h) was 25.3 µM, the EC50 [1] was 25.3 µM and the IC50 (AGS cells; 24 h, read-out: IC50 AGS cells at 24 h) was 7.5 µM. The IC50 (AGS cells; MTT, 48 h, read-out: IC50 AGS cells at 48 h) was 7.5 µM, the IC50 (AGS cells; [9]) was 7.5 µM and the “live THP-1 cells” value (THP-1 cells) was 71%. The “concentration at which THP-1 cell viability begins to decrease” value (from here on “concentration … to decrease”) (THP-1 cells) was 3.125 µM, the CC50 (THP-1 cells; read-out: CC50 THP-1, ATP levels) was 22.2 µM and the CC50 at 72 h ([2]; CC50 THP-1, 72 h, ATP levels) was 22.2 µM.
In the case of CO[C@@H]1C=C[C@@]23c4cc5c(cc4C(O)N(C[C@@H]2O)[C@H]3C1)OCO5 (some centres unmarked) [Haemanthidine], the “DENVGFP inhibition at 1.56 µM” value (DENVGFP; Huh7 cells) is reported as “Complete inhibition”, the EC50 (DENVGFP; [7]) is reported as 0.48 µM and the EC50 (DENVGFP; [8]) is reported as 0.476 µM. For the same compound, the “reduction of Hacat cell viability” value (Hacat cells [3]) was 15–30%, the “cytotoxic activity on Hacat cells” value (Hacat cells [3]) was “showed cytotoxic activity” and the “live Huh7 cells” value (Huh7 cells; 6.25 µM, 72 h) was 83.3%. For the same compound, the “concentration at which Huh7 cell viability is reduced” value (Huh7 cells; 72 h) was 6.25 µM, the “reduction of A431 cell viability” value (A431 cells [4]) was 15–30% and the “cytotoxic activity on A431 cells” value (A431 cells [4]) was “showed cytotoxic activity”. The “HIV-1GFP inhibition at 100 µM” value [1] was “Complete viral inhibition”, the “inhibition of HIV-1GFP, dose dependence” value [1] was “dose-dependent inhibition of HIV-1” and the EC50 ([1]; Homo sapiens, THP-1, 72 h) was 12.7 µM. For the same compound, the EC50 [1] was 12.7 µM, the IC50 (AGS cells; [9]) was 5 µM and the “cytotoxic activity on AGS cells” value (AGS cells) was “showed cytotoxic activity”. The “live THP-1 cells” value (THP-1 cells) was 71%, the “concentration … to decrease” value (THP-1 cells) was 3.125 µM and the CC50 at 72 h ([2]; CC50 THP-1, 72 h, ATP levels) was 16.8 µM.
In the case of COc1cc2c(cc1OC)[C@H]1[C@H]3C(=CC[C@H]1OC2=O)CCN3C [Homolycorine], the EC50 (DENVGFP; [7]) is reported as 65 µM and the EC50 (DENVGFP; [10]) is reported as 65 µM.
For O[C@H]1[C@H]2c3cc4c(cc3CN3CCC(=C[C@@H]1O)[C@H]23)OCO4 [Lycorine], the “DENVGFP inhibition at 1.56 µM” value (DENVGFP; Huh7 cells) was “Complete inhibition”, the EC50 (DENVGFP; [7]) was 0.386 µM and the EC50 (DENVGFP; [10]) was 0.39 µM. For the same compound, the “cytotoxic activity on Hacat cells” value (Hacat cells [3]) was “showed cytotoxic activity”, the “reduction of Huh7 viability” value (Huh7 cells; 0.78 µM, 72 h) was 21% and the “reduction of Huh7 cell viability” value (Huh7 cells; 1.56 µM) was 25%. The IC50 (Hacat cells [5]) was 0.5 µM, the “cytotoxic activity on A431 cells” value (A431 cells [4]) was “showed cytotoxic activity” and the IC50 (A431 cells [6]) was 0.5 µM. For the same compound, the “HIV-1GFP inhibition at 100 µM” value [1] was “Complete viral inhibition”, the “inhibition of HIV-1GFP, dose dependence” value [1] was “dose-dependent inhibition of HIV-1” and the EC50 ([1]; Homo sapiens, THP-1, 72 h) was 10.9 µM. For the same compound, the IC50 (AGS cells; [9]) was under 0.5 µM, the “cytotoxic activity on AGS cells” value (AGS cells) was “showed cytotoxic activity” and the CC50 (THP-1 cells; human) was 4.61 µM. It also gave a CC50 at 72 h ([2]; CC50 THP-1) of 4.6 µM.
In the case of CO[C@@H]1C=C[C@@]23c4cc5c(cc4CN(CCc4ccc(O)cc4)[C@@H]2C(=O)N(C)[C@H]3C1)OCO5 [Obliquine], the EC50 (DENVGFP; [7]) is reported as 73.6 µM, the EC50 (DENVGFP; [10]) is reported as 73.6 µM and the “concentration at which Huh7 cell viability is reduced” value (Huh7 cells; 72 h) is reported as 100 µM. For the same compound, the viability at 72 h, 100 µM (in vitro; Huh7 hepatocyte-derived carcinoma cells) was 82.6%, the “inhibition of HIV-1GFP, dose dependence” value [1] was “dose-dependent inhibition of HIV-1” and the EC50 ([1]; Homo sapiens, THP-1, 72 h) was 153 µM. For the same compound, the viability at 72 h, 100 µM [2] was 55.3% and the CC50 at 72 h ([2]; CC50 THP-1, 72 h, ATP levels) was 127 µM.
With OC1C=C2C3CN(Cc4cc5c(cc43)OCO5)C2CC1O (centres unmarked) [Pancracine] the “DENVGFP inhibition at 1.56 µM” value (DENVGFP; Huh7 cells) was “Complete inhibition”, the EC50 (DENVGFP; [7]) was 0.358 µM and the EC50 (DENVGFP; [8]) was 0.357 µM. For the same compound, the EC50 (DENVGFP; [10]) was 0.36 µM, the “live Huh7 cells” value (Huh7 cells; 6.25 µM, 72 h) was 78.1% and the “concentration at which Huh7 cell viability is reduced” value (Huh7 cells; 72 h) was 6.25 µM. For the same compound, the “HIV-1GFP inhibition at 100 µM” value [1] was “Complete viral inhibition”, the “inhibition of HIV-1GFP, dose dependence” value [1] was “dose-dependent inhibition of HIV-1” and the EC50 ([1]; Homo sapiens, THP-1, 72 h) was 18.5 µM. The EC50 [1] was 18.5 µM, the “live THP-1 cells” value (THP-1 cells) was 82% and the “concentration … to decrease” value (THP-1 cells) was 3.125 µM. The CC50 at 72 h ([2]; CC50 THP-1, 72 h, ATP levels) was 25.9 µM.
With Cc1nnc(C(=O)NC(C)(C)c2nc(C(=O)NCc3ccc(F)cc3)c(O)c(=O)n2C)o1 [Raltegravir, reference compound] the “HIV-1 infection with positive control” value [1] was “completely impeded HIV-1 infection”.
In the case of CO[C@@H]1C=C[C@@]23c4cc5c(cc4CO[C@]2(O)CN(C)[C@H]3C1)OCO5 [Tazettine], the EC50 (DENVGFP; [7]) is reported as 12.5 µM, the “reduction of Hacat cell viability” value (Hacat cells [3]) is reported as 15–30% and the “concentration at which Huh7 cell viability is reduced” value (Huh7 cells; human, 72 h) is reported as “higher than 50 µM”. For the same compound, the viability at 72 h, 50 µM (in vitro) was 85.2%, the “reduction of A431 cell viability” value (A431 cells [4]) was 15–30% and the “inhibition of HIV-1GFP, dose dependence” value [1] was “dose-dependent inhibition of HIV-1”. For the same compound, the EC50 ([1]; Homo sapiens, THP-1, 72 h) was 120 µM, the viability at 72 h, 100 µM [2] was 60.9% and the CC50 at 72 h ([2]; CC50 THP-1, 72 h, ATP levels) was 137 µM.
For O[C@@H]1C=C[C@]23CCN(Cc4cc5c(cc42)OCO5)[C@H]3C1 [Vittatine], the EC50 (DENVGFP; [7]) was 15.5 µM.
For COC1C=CC23c4cc5c(cc4C(OC(=O)c4ccc(Br)cc4)N(CC2OC(=O)c2ccc(Br)cc2)C3C1)OCO5 (centres unmarked) [compound 11, 6,11-O,O′-Di-p-Bromobenzoyl Ester of haemanthidine], the “effect on AGS cell viability” value (AGS cells; MTT) was “able to reduce AGS cell viability”.
In the case of COC1C=CC23c4cc5c(cc4C(OC(=O)c4ccc(Br)cc4)N(CC2OC(=O)c2ccc(Br)cc2)C3C1)OCO5 (centres unmarked) [compound 12, 6,11-O,O′-Di-p-Bromobenzoyl Ester of haemanthidine], the “effect on AGS cell viability” value (AGS cells; MTT) is reported as “able to reduce AGS cell viability”.
